For test [1], the target named is D(2) dopamine receptor (Homo sapiens) (UniProt P14416).
Description: Displacement of [3H]spiperone from human Dopamine receptor D2
In test [2] the target is D(3) dopamine receptor (Homo sapiens) (UniProt P35462).
Description: Displacement of [3H]7-OH-DPAT from human Dopamine receptor D3
In test [3] the target is T1, D(4) dopamine receptor (Homo sapiens) (UniProt P21917).
T1 sequence (whole entry): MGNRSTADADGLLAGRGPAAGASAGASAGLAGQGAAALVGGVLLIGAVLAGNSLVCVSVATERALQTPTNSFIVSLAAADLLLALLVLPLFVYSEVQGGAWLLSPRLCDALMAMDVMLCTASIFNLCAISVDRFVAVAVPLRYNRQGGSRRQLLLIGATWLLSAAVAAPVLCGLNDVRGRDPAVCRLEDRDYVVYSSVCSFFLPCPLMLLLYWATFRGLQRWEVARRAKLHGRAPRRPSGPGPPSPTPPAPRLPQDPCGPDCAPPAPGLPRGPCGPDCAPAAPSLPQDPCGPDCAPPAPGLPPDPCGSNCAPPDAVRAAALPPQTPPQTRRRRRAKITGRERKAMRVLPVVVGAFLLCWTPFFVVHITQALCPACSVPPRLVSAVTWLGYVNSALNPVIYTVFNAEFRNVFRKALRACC
Description: Displacement of [3H]spiperone from human Dopamine receptor D4

Sequence of D(2) dopamine receptor (Homo sapiens) (P14416 whole entry): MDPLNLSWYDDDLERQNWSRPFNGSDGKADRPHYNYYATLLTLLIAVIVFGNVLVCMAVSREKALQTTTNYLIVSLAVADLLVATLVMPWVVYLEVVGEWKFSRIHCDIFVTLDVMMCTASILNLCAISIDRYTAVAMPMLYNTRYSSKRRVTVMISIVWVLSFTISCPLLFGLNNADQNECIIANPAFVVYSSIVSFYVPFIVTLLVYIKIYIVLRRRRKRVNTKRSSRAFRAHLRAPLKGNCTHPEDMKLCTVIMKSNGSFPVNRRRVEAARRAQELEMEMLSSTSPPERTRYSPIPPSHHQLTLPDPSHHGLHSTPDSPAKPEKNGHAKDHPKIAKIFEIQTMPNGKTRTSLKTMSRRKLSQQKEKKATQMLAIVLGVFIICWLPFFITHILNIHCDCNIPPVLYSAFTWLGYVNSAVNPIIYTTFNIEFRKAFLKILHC
Sequence of D(3) dopamine receptor (Homo sapiens) (P35462 whole entry): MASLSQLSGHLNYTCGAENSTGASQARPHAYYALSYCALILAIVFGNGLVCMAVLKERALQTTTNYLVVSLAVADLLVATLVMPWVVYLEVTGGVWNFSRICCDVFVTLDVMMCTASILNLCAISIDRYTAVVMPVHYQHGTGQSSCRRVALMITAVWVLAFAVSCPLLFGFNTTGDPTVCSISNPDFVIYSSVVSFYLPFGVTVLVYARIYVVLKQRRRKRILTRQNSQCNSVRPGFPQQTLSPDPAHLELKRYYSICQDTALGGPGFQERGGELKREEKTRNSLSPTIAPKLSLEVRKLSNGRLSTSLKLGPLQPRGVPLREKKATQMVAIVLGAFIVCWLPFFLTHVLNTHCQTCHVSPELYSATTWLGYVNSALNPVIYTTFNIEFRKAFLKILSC

With `O=C(CCCN1CCC(CCO)(c2ccc(Cl)cc2)C1)c1ccc(F)cc1` (stereo not given), the pKi was 7.64 in test [1], 7.49 in test [2] and 6.71 in test [3].

`O=C(CCCN1CCC(CO)(c2ccc(Cl)cc2)C1)c1ccc(F)cc1` (stereo not given): the pKi in test [1] came out at 7.36; in test [2], 6.78; in test [3] it was 7.62.

On to `O=C(CCCN1CCC(c2ccc(Cl)cc2)CC1)c1ccc(F)cc1`, for which the results for the pKi in test [2] and in test [3] were 7.34 and 7.59, respectively.

Consider `O=C(CCCN1CCC(O)(Cc2ccc(Cl)cc2)CC1)c1ccc(F)cc1`, for which the pKi was found to be 8.1 in test [1], 8.05 in test [2] and 7.23 in test [3].

On to `CN(CCCC(=O)c1ccc(F)cc1)CCCC(O)c1ccc(Cl)cc1` (stereo not given), for which the values for the pKi in test [2] and in test [3] were 6.79 and 6.72, respectively.

On to `O=C(CCC[n+]1ccc(-c2ccc(Cl)cc2)cc1)c1ccc(F)cc1`, for which the pKi in test [1], in test [2] and in test [3] was less than 6 each time.

`O=C(CCCN1CCC(C(O)c2ccc(Cl)cc2)CC1)c1ccc(F)cc1` (stereo not given): the pKi was 7.62 in test [1], 7.11 in test [2] and 6.91 in test [3].

In turn, `O=C(CCCN1CCCC(O)(c2ccc(Cl)cc2)CC1)c1ccc(F)cc1` (stereo not given) yielded a pKi in test [1] of 8.96.

With `O=C(CCCN1CCC(c2ccc(Cl)cc2)C1)c1ccc(F)cc1` (stereo not given), the pKi in test [1] came out at 7.81; in test [3], 7.82.

For `O=C(CCCN1CCC(CO)(c2ccc(Cl)cc2)CC1)c1ccc(F)cc1`, the pKi in test [1] was 7.81; in test [2] it was 6.96; in test [3] it was 7.11.
